Assay [1] has as its system Human immunodeficiency virus 1. As to the kind of experiment: Antiviral activity against HIV-1. The assay is classed as functional, organism-based.
The target in assay [2] is Human immunodeficiency virus type 1 protease (Human immunodeficiency virus 1, UniProt Q72874). As to the kind of experiment: Compound was tested for inhibitory activity against recombinant HIV-1 protease using 125 I-SPA (scintillation proximity assay). (In general: In a scintillation proximity assay essentially only radioactivity close to the scintillant gives light.)

The record followed here is ChEMBL document CHEMBL1127249, “Design, structure activity and x-ray crystallographic studies of pseudosymmetrical nonpeptidyl HIV-1 protease inhibitors” (Bioorg Med Chem Lett, 1994).

A word on the IC50: it is the concentration needed to halve the response being measured.

As for `O=C(N[C@H]1CCCC[C@@H]1NC(=O)[C@H](Cc1ccccc1)CC(O)C[C@@H](Cc1ccccc1)C(=O)N[C@H]1CCCC[C@@H]1NC(=O)c1ccc2ccccc2n1)c1ccc2ccccc2n1`, the IC50 in assay [1] stood at 2000 nM; in assay [2] it was 40 nM.

`O=C(N[C@H]1CCCC[C@@H]1NC(=O)[C@H](Cc1ccccc1)CC(O)C[C@@H](Cc1ccccc1)C(=O)N[C@H]1CCCC[C@@H]1NC(=O)c1ccncc1)c1ccncc1`: the IC50 in assay [1] was over 20000 nM; in assay [2] it was 350 nM.

On to `CC(=O)N[C@H]1CCCC[C@@H]1NC(=O)[C@H](Cc1ccccc1)CC(O)C[C@@H](Cc1ccccc1)C(=O)N[C@H]1CCCC[C@@H]1NC(C)=O`, for which, in assay [2], the IC50 came to 3000 nM.

As for `O=C(N[C@H]1CCCC[C@@H]1NC(=O)[C@H](Cc1ccccc1)CC(O)C[C@@H](Cc1ccccc1)C(=O)N[C@H]1CCCC[C@@H]1NC(=O)c1cccnc1)c1cccnc1`, the IC50 in assay [2] was 600 nM.

Turning to `O=C(N[C@H]1CCCC[C@@H]1NC(=O)[C@H](Cc1ccccc1)CC(O)C[C@@H](Cc1ccccc1)C(=O)N[C@H]1CCCC[C@@H]1NC(=O)c1ccccn1)c1ccccn1`, the IC50 in assay [1] was over 20000 nM; in assay [2] it was 400 nM.

Regarding `O=C(N[C@H]1CCCC[C@@H]1NC(=O)[C@H](Cc1ccccc1)CC(O)C[C@@H](Cc1ccccc1)C(=O)N[C@H]1CCCC[C@@H]1NC(=O)c1cc2ccccc2cn1)c1cc2ccccc2cn1`, the IC50 in assay [2] was determined as 45 nM.

For `CC(C)(C)OC(=O)N[C@H]1CCCC[C@@H]1NC(=O)[C@H](Cc1ccccc1)CC(O)C[C@@H](Cc1ccccc1)C(=O)N[C@H]1CCCC[C@@H]1NC(=O)OC(C)(C)C`, the IC50 in assay [2] was over 10000 nM.
